{
  "source": "patent US20120003298A1",
  "about": "“METHODS FOR INDUCING AN IMMUNE RESPONSE” (priority 2010, published 2012)",
  "key": {"PBMCs": {"tested_on": "PBMCs", "experiment": "IL-6 and TNF-alpha secretion in PBMC model (Model 2), ELISA", "type": "cell-based, human", "details": "three donors"}, "HLA-DR+/CD20+ B cells": {"tested_on": "HLA-DR+/CD20+ B cells", "experiment": "FACS, B cell activation in whole blood", "type": "cell-based, human", "details": "24 hours; 2 and 10 uM", "quoted_text": "B-cells: HLA-DR/CD20/CD40\nThe FACS staining was performed according to the manufacturer's instructions. Lysis of red blood cells was performed before FACS staining in order to minimize auto-florescence. To include as many B cells and DCs in the study as possible the FACS analyses were performed on 500,000 cells in total for each staining. […] The results of the individual analysis were present as Mean Fluorescence Intensity (MFI) values, for certain activation marker in a given gate setting, represent the actual cell subset. The isotype background values have been used to set the gates so that a maximum at 2% of unspecific stained cells could be found in the positive gates.\nThe analysis of expression of the activation marker CD40 on B cells was made on double positive HLA-DR (MHC class II) (P4 gate) and CD20 cells (B cell marker) (P8 gate)."}, "[1]": {"tested_on": "myeloid CD11c+/CD123− DCs", "experiment": "FACS, myeloid DC activation in whole blood", "type": "cell-based, human", "details": "24 hours; 0.1 and 0.5 uM", "experimental": "The FACS analysis for donor 1 and donor 2 was made on another day than donor 3. The compound concentrations were as follows:\nB cell activation: 2 and 10 uM mDC/pDC: 0.1 and 0.5 uM\nThe FACS analysis was used to identify whether the test compounds could induce activation of B cells, and two different subsets of dendritic cells, namely the myeloid CD11c+/CD123− DCs and the plasmacytoid CD11c−/CD123+DCs. The following markers were studied to identify the activation status of the different subsets:\nThe FACS staining was performed according to the manufacturer's instructions. Lysis of red blood cells was performed before FACS staining in order to minimize auto-florescence. To include as many B cells and DCs in the study as possible the FACS analyses were performed on 500,000 cells in total for each staining. A P1 gate was set only to include relevant cells on FSC vs. SSC (see FIGS. 12-15). The results of the individual analysis were present as Mean Fluorescence Intensity (MFI) values, for certain activation marker in a given gate setting, represent the actual cell subset. The isotype background values have been used to set the gates so that a maximum at 2% of unspecific stained cells could be found in the positive gates.\nThe analysis of myeloid DCs was based on HLA-DR+/CD11c+/CD123-cells, thus all analyzed cells was included in the HLA-DR+(P3) gate and CD11c+/CD123− (Q4) gate (see gates in FIGS. 13-15)."}, "[2]": {"tested_on": "plasmacytoid CD11c−/CD123+DCs", "experiment": "FACS, plasmacytoid DC activation in whole blood", "type": "cell-based, human", "details": "24 hours; 0.1 and 0.5 uM", "text": "The analysis of pDCs was based on HLA-DR+/CD11c−/CD123+ cells, thus all analyzed cells were included in the HLA-DR+ (P3) gate and CD11c−/CD123+(Q1) gate."}, "NFκB-bla Raw 264.7 Cells": {"tested_on": "NFκB-bla Raw 264.7 Cells", "experiment": "NFκB activation in NFκB-bla Raw 264.7 cells", "type": "cell-based, mouse", "details": "FIG. 2", "quoted_text": "NFκB-bla Raw 264.7 Cells were purchased from Life Technologies Corporation (Carlsbad, Calif.). […] Drugs were dissolved and diluted in DMSO to obtain an initial stock solution (10 or 50 mM). Drugs were then serially diluted (usually 1:3 or 1:5) in DMSO. The stock solutions were further diluted in Assay Medium and added to cells already in each well."}, "OVA specific Ig": {"tested_on": "OVA specific Ig", "experiment": "Adjuvanticity with ovalbumin (OVA), subcutaneous immunization", "type": "in vivo, mouse", "text": "For the adjuvanticity experiments, mice were subcutaneously immunized with 20 pg ovalbumin (OVA) with 10 nmol or 100 nmol (TLR7 agonist equivalent dose) per mouse in various TLR7 conjugates on days 0 and 7. Sera were collected on days 0, 7, 14, 21, 28, 42, and 56. Mice immunized with saline or OVA mixed with vehicle served as controls. Mice were sacrificed on day 56.\nImmunization occurs on day 0 and 7. Serum collection day is on 0, 7, 14, 21, 28, 42 and 56 days."}, "[3]": {"experiment": "Single dose intravenous toxicity study in rats", "type": "in vivo, Sprague Dawley rat", "experimental": "An additional group, similarly composed, received the vehicle alone and acted as a control. […] Clinical signs were limited to piloerection and reduced activity, observed on the day of dosing.\nA second group was dosed at 100 mg/kg. […] A third group was then dosed at 85 mg/kg. […] A fourth group was finally dosed at 90 mg/kg. […] Piloerection was observed from Day 2 up to Day 4 of the study.\nIn the main phase, 5 male and 5 female animals were dosed at 90 mg/kg and observed for a period of 14 days. A second group, similarly constituted, received the vehicle alone and acted as control. […] In addition, one male and one female dosed at 90 mg/kg were found dead on Day 2 of the study. Twitches, ataxia, piloerection, reduced activity and hunched posture were the major signs observed in animals before death. […] Piloerection was observed up to Day 3 of the study. A second group, similarly composed, was dosed at 80 mg/kg.\nRecovery occurred by Day 15 and the body weight changes were within the expected range for this species and age of animals at the end of the study. […] Surviving animals were killed at the end of the observation period with carbon dioxide narcosis. All animals, including the early decedents, were subjected to necropsy examination. […] Therefore, the maximum tolerated dose in this study was considered to be 80 mg/kg."}, "[4]": {"tested_on": "73 primary molecular targets", "experiment": "Radioligand binding assay among 73 primary molecular targets", "details": "SC12 tested at 30 microM"}, "CYP3A4": {"biological_target": "T1, CYP3A4 (Homo sapiens, UniProt P08684)", "T1 construct": "purchased Gentest", "T1 sequence (P08684 whole entry)": "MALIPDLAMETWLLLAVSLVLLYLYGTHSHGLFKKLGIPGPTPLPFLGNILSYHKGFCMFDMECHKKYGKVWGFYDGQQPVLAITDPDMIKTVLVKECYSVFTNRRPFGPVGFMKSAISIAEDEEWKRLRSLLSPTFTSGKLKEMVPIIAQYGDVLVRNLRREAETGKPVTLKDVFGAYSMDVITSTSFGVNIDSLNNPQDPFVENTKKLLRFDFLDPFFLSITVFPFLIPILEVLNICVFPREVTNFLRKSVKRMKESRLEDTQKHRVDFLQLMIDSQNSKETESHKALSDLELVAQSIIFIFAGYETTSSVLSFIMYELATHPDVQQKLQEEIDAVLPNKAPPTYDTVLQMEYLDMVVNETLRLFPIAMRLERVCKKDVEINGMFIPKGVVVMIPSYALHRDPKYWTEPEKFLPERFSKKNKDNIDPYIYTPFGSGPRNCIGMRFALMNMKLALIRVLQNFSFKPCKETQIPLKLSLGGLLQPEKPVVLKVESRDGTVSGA", "experiment": "Fluorescent High Throughput P450 assay, CYP3A4", "type": "biochemical", "quoted_text": "(§1) Inhibition of the P450 isoforms was measured in specific assays using specific substrates that become fluorescent upon CYP metabolism. Compounds, dissolved in ACN (acetonitrile) (CYP2E1, CYP2C8, CYP2B6, CYP3A5) or DMSO (all remaining isoforms), were tested in duplicate (n=2) in concentration-response curves (eight concentrations) in a 96-well plate containing incubation/NADPH regenerating buffer. Specific isoenzymes and substrates were added and incubated at 37° C. Reactions were terminated at different times, depending on the assays, and plates read on a Fluoroskan Ascent at the appropriate emission/excitation wavelengths. Concentration-response curves performed in duplicate for known inhibitors for each isoenzyme were tested in every assay as positive control."}, "CYP3A5": {"biological_target": "T2, CYP3A5 (Homo sapiens, UniProt P20815)", "T2 construct": "purchased Gentest", "T2 sequence (P20815 whole entry)": "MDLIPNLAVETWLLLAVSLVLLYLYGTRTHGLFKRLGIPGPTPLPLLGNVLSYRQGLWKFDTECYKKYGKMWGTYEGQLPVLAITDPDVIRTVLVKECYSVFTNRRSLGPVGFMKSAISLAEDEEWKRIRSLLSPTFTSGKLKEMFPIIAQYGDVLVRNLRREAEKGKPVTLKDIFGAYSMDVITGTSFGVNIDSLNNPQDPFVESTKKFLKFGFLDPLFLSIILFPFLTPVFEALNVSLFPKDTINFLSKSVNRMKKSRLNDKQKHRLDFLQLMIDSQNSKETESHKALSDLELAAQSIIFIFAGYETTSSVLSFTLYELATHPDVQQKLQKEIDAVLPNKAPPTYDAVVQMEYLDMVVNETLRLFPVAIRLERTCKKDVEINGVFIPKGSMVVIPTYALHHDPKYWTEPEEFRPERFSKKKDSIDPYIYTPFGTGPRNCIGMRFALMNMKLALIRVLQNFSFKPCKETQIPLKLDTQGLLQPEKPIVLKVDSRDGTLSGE", "experiment": "Fluorescent High Throughput P450 assay, CYP3A5", "type": "biochemical", "quoted_text": "as §1"}, "CYP2E1": {"biological_target": "T3, CYP2E1 (Homo sapiens, UniProt P05181)", "T3 construct": "purchased Gentest", "T3 sequence (P05181 whole entry)": "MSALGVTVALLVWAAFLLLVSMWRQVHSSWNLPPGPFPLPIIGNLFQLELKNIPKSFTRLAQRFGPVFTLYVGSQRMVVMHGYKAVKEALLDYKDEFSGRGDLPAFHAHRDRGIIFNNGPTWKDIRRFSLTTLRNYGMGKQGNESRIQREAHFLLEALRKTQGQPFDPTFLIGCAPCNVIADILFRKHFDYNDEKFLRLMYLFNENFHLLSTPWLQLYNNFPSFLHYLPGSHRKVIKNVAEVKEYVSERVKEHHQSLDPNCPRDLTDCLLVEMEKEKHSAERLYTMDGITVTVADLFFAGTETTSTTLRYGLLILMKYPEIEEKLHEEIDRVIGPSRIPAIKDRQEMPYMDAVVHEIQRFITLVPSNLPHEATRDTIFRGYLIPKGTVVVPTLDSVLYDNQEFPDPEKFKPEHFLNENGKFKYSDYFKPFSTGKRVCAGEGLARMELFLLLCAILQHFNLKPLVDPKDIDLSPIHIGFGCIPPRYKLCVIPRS", "experiment": "Fluorescent High Throughput P450 assay, CYP2E1", "type": "biochemical", "quoted_text": "as §1"}, "[5]": {"tested_on": "recombinant antigens from Plasmodium falciparum and Mycobacterium ulcerans", "experiment": "Pilot immunization study with adjuvanted recombinant protein antigens", "type": "in vivo, mouse", "experimental": "A pilot immunization study was conducted using Compound A and SC12 adjuvanted protein antigens. The immunization experiments were performed with two recombinant proteins expressed in E. coli. One antigen was derived from the malaria parasite Plasmodium falciparum and the other one from Mycobacterium ulcerans, which cause the ulcerative skin disease Buruli ulcer."}, "[6]": {"tested_on": "Cutaneous Squamous Cell Carcinoma (SCC) cell lines SCL-I, SCL-II, SCC-12, SCC-13", "quoted_text": "SCC cells are grown under standard conditions (10% FBS).\nTime and dose dependency of effects on total cell numbers have been investigated by real-time cell analysis, which is based on continuous monitoring of electric conductance in microtiter wells (E-plates, Roche), which corresponds to the cell numbers. […] For these assays 4 cell lines may be used to obtain a representative overview on the effects on SCC cells."}, "[7]": {"experiment": "Solubility observations in the text"}, "[8]": {"tested_on": "AY-27 rat bladder cancer cell-line", "experiment": "Orthotopic rat bladder cancer model, intravesical instillation", "details": "of 14 per group"}},
  "data": [
    {"smiles": "CCCCCCCCCCCC(=O)OCC(COP(=O)(O)OCCNC(=O)c1ccc(Cn2c(=O)[nH]c3c(N)nc(OCCOC)nc32)cc1)OC(=O)CCCCCCCCCCC", "note": "(centres unmarked) [SC12]", "values": [
      {"measurement": "potency for TNF-alpha secretion", "setting": "PBMCs", "value": "on average slightly more potent than compound A"},
      {"measurement": "CD40 expression on B cells (MFI, words)", "setting": "HLA-DR+/CD20+ B cells", "value": "induced CD40 expression in donor 1 and donor 2 in all tested concentrations"},
      {"measurement": "CCR7 expression in mDCs (MFI, words)", "setting": "[1]", "value": "less potent stimulator of CCR7 expression"},
      {"measurement": "CD80 expression in mDCs (MFI, words)", "setting": "[1]", "value": "noteworthy CD80 expression in all three donors"},
      {"measurement": "CD86 expression in mDCs (MFI, words)", "setting": "[1]", "value": "weak CD86 expression in donor 2 and 3, but not in donor 1"},
      {"measurement": "CD80 expression in pDCs (MFI, words)", "setting": "[2]", "value": "slightly higher CD80 expression than compound A"},
      {"measurement": "CD86 expression in pDCs (MFI, words)", "setting": "[2]", "value": "tendency to induce higher CD86 expression than compound A"},
      {"measurement": "activity in NFkB RAW cells", "setting": "NFκB-bla Raw 264.7 Cells", "value": "more active than the free pharmocophore"},
      {"measurement": "adjuvant potency, Th1 immune response", "setting": "OVA specific Ig; 100 nmoles SC12 equivalent to 10 nmoles compound A", "value": "10 times less potent than compound A or compound A*"},
      {"measurement": "antigen specific IgG2a", "setting": "OVA specific Ig; OVA 20 μg with 10 or 100 nmoles, days 0 and 7", "value": "significantly higher than the immunization with OVA alone"},
      {"measurement": "OVA-specific IgG1", "setting": "OVA specific Ig; mouse, in vivo", "value": "not found to induce high levels of OVA-specific IgG1"},
      {"measurement": "mortality and clinical signs", "setting": "[3]; 76 mg/kg, preliminary phase", "value": "No mortality occurred"},
      {"measurement": "mortality and clinical signs", "setting": "[3]; 80 mg/kg, main phase", "value": "No mortality occurred and no clinical signs were recorded"},
      {"measurement": "mortality and clinical signs", "setting": "[3]; 85 mg/kg, preliminary phase", "value": "Piloerection was observed on the day of dosing"},
      {"measurement": "necropsy examination", "setting": "[3]; 90 mg/kg and 80 mg/kg", "value": "No abnormalities were observed at necropsy examination"},
      {"measurement": "mortality and clinical signs", "setting": "[3]; 90 mg/kg, main phase, 5 male and 5 female", "value": "Three males treated at 90 mg/kg died immediately after dosing, while two females died at 2 hours post-dose"},
      {"measurement": "mortality and clinical signs", "setting": "[3]; 90 mg/kg, preliminary phase", "value": "No mortality occurred"},
      {"measurement": "mortality and clinical signs", "setting": "[3]; 100 mg/kg, preliminary phase", "value": "Both animals died at dosing"},
      {"measurement": "body weight", "setting": "[3]; surviving animals at 90 mg/kg and animals at 80 mg/kg", "value": "slight to moderate body weight loss on Day 2"},
      {"measurement": "binding to receptors associated with pain-related syndromes (e.g. adenosine and sodium channel)", "setting": "[4]", "value": "did not bind this type of receptors"},
      {"measurement": "inhibition of CYP3A4", "setting": "CYP3A4", "value": "moderate inhibition"},
      {"measurement": "inhibition of CYP3A5", "setting": "CYP3A5", "value": "moderate inhibition"},
      {"measurement": "inhibition of CYP2E1", "setting": "CYP2E1", "value": "moderate inhibition"},
      {"measurement": "local side effects", "setting": "[5]; subcutaneous, 10 nMol", "value": "No local side effects"},
      {"measurement": "IgG responses against the target antigens", "setting": "[5]; three subcutaneous immunizations, 20 micrograms antigen with 10 nMol adjuvant", "value": "developed IgG responses"},
      {"measurement": "cell numbers, real-time cell analysis", "setting": "[6]; FIG. 11", "value": "reduced cell numbers"},
      {"measurement": "morphology and proliferation", "setting": "[6]; day 3, 120 microM", "value": "cell detachment, morphological changes and inhibition of proliferation"},
      {"measurement": "solubility", "setting": "[7]; P450 assays, especially in ACN", "value": "low solubility"},
      {"measurement": "precipitation in bacterial mutation assay", "setting": "[7]; toxicity test, two highest concentrations (5000 and 1580 micrograms/plate), end of incubation", "value": "Precipitation"},
      {"measurement": "Number of rat bladders Tumor free", "setting": "[8]", "value": 6},
      {"measurement": "Number of rat bladders with pT2 Tumor", "setting": "[8]", "value": 7},
      {"measurement": "Number of rat bladders with pTa Tumor", "setting": "[8]", "value": 1},
      {"measurement": "Tumor free, share of group", "setting": "[8]", "value": 42.9, "unit": "%"},
      {"measurement": "pT2 Tumor, share of group", "setting": "[8]", "value": 50.0, "unit": "%"},
      {"measurement": "pTa Tumor, share of group", "setting": "[8]", "value": 7.1, "unit": "%"}
    ]}
  ]
}
